This note sets out measurements from patent EP4043434A1, “NOVEL SULFONYLIMINES” (Karl-Franzens-Universität Graz, priority 2021, dated 2022).

As a reminder, the IC50 is the concentration at which inhibition is half-maximal.

The subject of one series is L-6 cells. Briefly: cells. Type of series: cell-based, rat. The settings on record: for IC50: Rattus norvegicus, L6, cytotoxicity against L-6 cells, 70 h + 2 h incubation with Alamar Blue. The procedure:
Assays were performed in 96-well microtiter plates, each well containing 100 µl of RPMI 1640 medium supplemented with 1% L-glutamine (200 mM) and 10% fetal bovine serum, and 4000 L-6 cell, a primary cell line derived from rat skeletal myoblasts (Page, C.; et al. J. Oncol. 1993, 3, 473-476; Ahmed, S. A.; Gogal, R. M.; et al. J. Immunol. Methods 1994, 170 211-224).
Serial drug dilutions of eleven 3-fold dilution steps covering a range from 100 to 0.002 µg/ml were prepared. After 70 hours of incubation the plates were inspected under an inverted microscope to assure growth of the controls and sterile conditions. 10 µl of Alamar Blue was then added to each well and the plates incubated for another 2 hours. Then the plates were read with a Spectramax Gemini XS microplate fluorometer (Molecular Devices Cooperation, USA) using an excitation wave length of 536 nm and an emission wave length of 588 nm. The IC50 values were calculated by linear regression (Huber, W.; et al. Acta Trop. 1993, 55, 257-261.) from the sigmoidal dose inhibition curves using SoftmaxPro software (Molecular Devices Cooperation, USA). Podophyllotoxin (Sigma P4405) was used as control. Table 1: Results for cytotoxicity against L-6 cells expressed as IC50 values (µM)
Background: Resazurin is reduced to fluorescent resorufin, in cell work by metabolically active cells.

Series [1] relates to Arthrobacter aurescens DSM20116. Put plainly: Drop plate method assay, antimicrobial activity. Type of series: cell-based. The note with it: 10 µl of 1 mg/ml in DMSO dropped on seeded agar plate, read after approximately 10-16 h. Details: key: high activity (++); Medium activity (+); no activity(-). The procedure:
(§1) A drop plate method assay (Alajlani, M.; et al. Chromatographia 2016, 79, 1527-1532.) with modification was performed to detect the antimicrobial and antifungal activity against the Gram positive bacteria Arthrobacter aurescens and the yeast strain Candida krusei. All compounds were dissolved in DMSO to a concentration of 1 mg/ml. Using sterile micropipette 10 µl of each compound was directly but gently dropped over seeded agar plate with test organism. The liquid was allowed to diffuse before the plate was inverted and incubated. The growth conditions for every strain was considered. The results were noted when a lawn of the indicator organism appeared on the plate (approximately 10-16 h). The magnitude of activity was noted as high activity (++), Medium activity (+),and no activity(-). Table 2: Antimicrobial and antifungal activities of compounds were detected over the test organisms.

For another series, the system named is Candida krusei CCMM L10. Briefly: Drop plate method assay, antifungal activity. The format is cell-based. Details: key: high activity (++); Medium activity (+); no activity(-). The note with it: 10 µl of 1 mg/ml in DMSO dropped on seeded agar plate, read after approximately 10-16 h. The procedure:
as §1

As to `CC(C)=C/C(=C\C=NS(=O)(=O)c1ccc([N+](=O)[O-])cc1)N1CCCCC1` [Example 2, (2E)-N-{5-Methyl-1-[(4-nitrophenyl)sulfonylimino]hexa-2,4-dien-3-yl}piperidin-1-ium chloride], the 50% inhibitory concentration (IC50) in the series on L-6 cells is 206 µM.

For the molecule `CC(C)=C/C(=C\C=NS(=O)(=O)c1ccc([N+](=O)[O-])cc1)N1CCCC1.Cl` [Example 3, (2E)-N-{5-Methyl-1-[(4-nitrophenyl)sulfonylimino]hexa-2,4-dien-3-yl}pyrrolidine-1-ium chloride], in the series with L-6 cells, the “IC50 for cytotoxicity relative to the investigated concentration” value was 100 times and the IC50 was found to be 250 µM. Also, the “magnitude of activity, Arthrobacter aurescens DSM20116” value in series [1] is reported as “++”. The “magnitude of activity, Candida krusei CCMM L10” value in the series on Candida krusei CCMM L10 is given as “+”.

For `CC(C)=C/C(=C\C=NS(=O)(=O)c1ccc(Cl)cc1)N1CCCCC1` [Example 5, (2E)-4-Chloro-N-[5-methyl-3-(piperidin-1-yl)hexa-2,4-dien-1-ylidene]benzenesulfonamide], in series [1], the “magnitude of activity, Arthrobacter aurescens DSM20116” value is listed as “++”. In addition, the “magnitude of activity, Candida krusei CCMM L10” value in the series with Candida krusei CCMM L10 is reported as “+”.

With `CC(C)=C/C(=C\C=NS(=O)(=O)c1ccccc1)N1CCCC1` [Example 6, 2(E)-N-[5-Methyl-3-(pyrrolidin-1-yl)hexa-2,4-dien-1-ylidene]benzenesulfonamide], the “magnitude of activity, Arthrobacter aurescens DSM20116” value in series [1] was “++”. In addition, the “magnitude of activity, Candida krusei CCMM L10” value in the series with Candida krusei CCMM L10 is listed as “+”.

As to `CC(C)=C/C(=C\C=NS(=O)(=O)c1ccccc1)N(C)C` [Example 7, (2E)-N-(3-Dimethylamino-5-methylhexa-2,4-dien-1-ylidene)benzenesulfonamide], in series [1], the “magnitude of activity, Arthrobacter aurescens DSM20116” value is recorded as “++”. In the series with Candida krusei CCMM L10, the “magnitude of activity, Candida krusei CCMM L10” value is “+”.

As for `CC(C)=C/C(=C\C=NS(=O)(=O)c1ccc(C)cc1)N1CCCC1` [Example 8, (2E)-4-Methyl-N-[5-methyl-3-(pyrrolidin-1-yl)hexa-2,4-dien-1-ylidene]benzenesulfonamide], in series [1], the “magnitude of activity, Arthrobacter aurescens DSM20116” value is listed as “++”. Also, the “magnitude of activity, Candida krusei CCMM L10” value in the series on Candida krusei CCMM L10 is “+”.

As to `CC(C)=C/C(=C\C=NS(C)(=O)=O)N1CCCCC1` [Example 10, (2E)-N-[5-Methyl-3-(piperidin-1-yl)hexa-2,4-dien-1-ylidene]methanesulfonamide], the “magnitude of activity, Arthrobacter aurescens DSM20116” value in series [1] is recorded as “++”. In addition, the “magnitude of activity, Candida krusei CCMM L10” value in the series with Candida krusei CCMM L10 was “+”.
